Reference: US8512726B1, “Molecular gel-based control release devices for pheromones” (The United States of America, as represented by the …, priority 2010, dated 2013)

Experiments:
[1] = at 20 C; cited from earlier work
[2] = system: varroa (Varroa destructor); conditions: at elevated levels, honey bee colonies; cited from earlier work
[3] = Biodegradation: mineralization in compost, respirometer; conditions: room temperature (22° C.), compared to starch control
Experimental: The relative degradation rate of samples was determined using a respirometer (Micro-Oxymax System, Columbus Instruments, Columbus, Ohio). The respirometer CO2 sensor was calibrated with a CO2 standard gas (8,000 ppm). […] The analyzer was equipped with a thermoconductivity detector and was operated using helium gas.
Commercial compost was purchased locally and adjusted to 58% moisture (dry weight basis). The glass sample bottles (250 ml) were filled with 20.0 g compost and 0.30 g test sample that was gently mixed with the compost. The sample bottles were initially flushed with CO2-free air and sealed. Respirometry experiments were conducted at room temperature (22° C.) and CO2 concentration was read every 12 hr. Three replications were tested for each treatment and data were expressed in terms of percentage mineralization.

Compound	vapor pressure [1] [kPa]	Control of parasitic mites [2]	Mineralization rate (biodegradability) [3]
CCCCCC(C)=O [2-heptanone]	0.48	controls parasitic mites	–
mannitol dioctanoate [M8]	–	–	mineralized at nearly the same rate as the starch control
